Source: the kinase profiling compilation of Christmann-Franck et al. (2016)

How the values were obtained:
Test in all cases: radiometric filter-binding kinase assay
[1] = molecular target: AURKB (human) (UniProt Q96GD4)
[2] = molecular target: MAP2K2 (human) (UniProt P36507)
[3] = molecular target: IKBKE (human) (UniProt Q14164)
[4] = molecular target: YES1 (human) (UniProt P07947)
[5] = molecular target: CaMK1 (human) (UniProt Q14012)
[6] = molecular target: MKNK2 (human) (UniProt Q9HBH9)
[7] = molecular target: MAP3K7 TAB1 (human) (UniProt Q15750+O43318)
[8] = molecular target: MAPK12 (human) (UniProt P53778)
[9] = molecular target: MINK1 (human) (UniProt Q8N4C8)
[10] = molecular target: CSK (human) (UniProt P41240)
[11] = molecular target: IGF1R (human) (UniProt P08069)
[12] = molecular target: MAPK9 (human) (UniProt P45984)
[13] = molecular target: BTK (human) (UniProt Q06187)
[14] = molecular target: MAPKAPK2 (human) (UniProt P49137)
[15] = molecular target: PAK4 (human) (UniProt O96013)
[16] = molecular target: MAPK14 (human) (UniProt Q16539)
[17] = molecular target: MAPKAPK5 (human) (UniProt Q8IW41)
[18] = molecular target: CAMKK2 (human) (UniProt Q96RR4)
[19] = molecular target: EPHB3 (human) (UniProt P54753)
[20] = molecular target: DYRK1A (human) (UniProt Q13627)
[21] = molecular target: IKBKB (human) (UniProt O14920)
[22] = molecular target: MELK (human) (UniProt Q14680)
[23] = molecular target: MAPK15 (human) (UniProt Q8TD08)
[24] = molecular target: CSNK1D (human) (UniProt P48730)
[25] = molecular target: RIPK2 (human) (UniProt O43353)
[26] = molecular target: PAK7 (human) (UniProt Q9P286)
[27] = molecular target: PRKACA (human) (UniProt P17612)
[28] = molecular target: HIPK2 (human) (UniProt Q9H2X6)
[29] = molecular target: EPHA4 (human) (UniProt P54764)
[30] = molecular target: BRSK1 (human) (UniProt Q8TDC3)
[31] = molecular target: PIM1 (human) (UniProt P11309)
[32] = molecular target: DYRK2 (human) (UniProt Q92630)
[33] = molecular target: MAPK8 (human) (UniProt P45983)
[34] = molecular target: MAP3K11 (human) (UniProt Q16584)
[35] = molecular target: EPHB2 (human) (UniProt P29323)
Sequence of EPHB2 (human) (P29323 whole entry, looked up): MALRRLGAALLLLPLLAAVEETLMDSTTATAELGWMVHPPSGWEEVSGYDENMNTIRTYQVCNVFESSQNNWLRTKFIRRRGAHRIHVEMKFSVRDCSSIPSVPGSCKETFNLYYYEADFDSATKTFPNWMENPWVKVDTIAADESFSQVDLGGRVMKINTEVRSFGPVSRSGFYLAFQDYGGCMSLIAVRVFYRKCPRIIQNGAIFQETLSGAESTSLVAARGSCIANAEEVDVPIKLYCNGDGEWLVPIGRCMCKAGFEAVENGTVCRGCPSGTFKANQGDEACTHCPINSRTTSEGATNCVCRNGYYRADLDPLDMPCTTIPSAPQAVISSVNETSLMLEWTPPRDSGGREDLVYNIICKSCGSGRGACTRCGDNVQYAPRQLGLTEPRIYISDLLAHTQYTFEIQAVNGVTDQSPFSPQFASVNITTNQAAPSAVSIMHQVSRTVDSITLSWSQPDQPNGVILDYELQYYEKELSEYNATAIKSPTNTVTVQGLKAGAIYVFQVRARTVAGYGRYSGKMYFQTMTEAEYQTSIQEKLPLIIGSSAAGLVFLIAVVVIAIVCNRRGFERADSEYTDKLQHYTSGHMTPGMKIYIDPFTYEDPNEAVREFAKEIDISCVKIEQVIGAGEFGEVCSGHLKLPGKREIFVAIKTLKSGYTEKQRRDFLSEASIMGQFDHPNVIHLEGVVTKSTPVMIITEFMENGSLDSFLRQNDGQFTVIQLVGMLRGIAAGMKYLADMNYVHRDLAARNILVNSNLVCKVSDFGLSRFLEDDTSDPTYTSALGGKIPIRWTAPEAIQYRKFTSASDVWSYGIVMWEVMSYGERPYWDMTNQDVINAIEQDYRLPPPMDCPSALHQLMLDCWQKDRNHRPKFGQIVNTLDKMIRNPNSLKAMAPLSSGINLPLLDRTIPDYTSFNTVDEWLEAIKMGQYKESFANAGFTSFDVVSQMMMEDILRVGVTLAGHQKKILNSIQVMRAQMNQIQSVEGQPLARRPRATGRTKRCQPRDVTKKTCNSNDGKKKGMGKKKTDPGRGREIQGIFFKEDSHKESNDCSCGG

Sequence of MAPK9 (human) (P45984 whole entry, looked up): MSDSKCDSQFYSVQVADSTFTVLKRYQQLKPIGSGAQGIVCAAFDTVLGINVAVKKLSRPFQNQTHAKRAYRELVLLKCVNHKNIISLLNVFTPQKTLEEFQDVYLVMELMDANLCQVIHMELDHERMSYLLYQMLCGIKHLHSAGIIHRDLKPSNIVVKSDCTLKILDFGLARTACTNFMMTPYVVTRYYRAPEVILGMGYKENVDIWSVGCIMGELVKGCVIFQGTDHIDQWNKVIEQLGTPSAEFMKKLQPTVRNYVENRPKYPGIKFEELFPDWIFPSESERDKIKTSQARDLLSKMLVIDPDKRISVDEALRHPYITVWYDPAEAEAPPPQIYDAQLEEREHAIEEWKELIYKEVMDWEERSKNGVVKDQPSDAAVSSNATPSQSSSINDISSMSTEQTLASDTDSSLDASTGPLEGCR
Sequence of PAK4 (human) (O96013 whole entry, looked up): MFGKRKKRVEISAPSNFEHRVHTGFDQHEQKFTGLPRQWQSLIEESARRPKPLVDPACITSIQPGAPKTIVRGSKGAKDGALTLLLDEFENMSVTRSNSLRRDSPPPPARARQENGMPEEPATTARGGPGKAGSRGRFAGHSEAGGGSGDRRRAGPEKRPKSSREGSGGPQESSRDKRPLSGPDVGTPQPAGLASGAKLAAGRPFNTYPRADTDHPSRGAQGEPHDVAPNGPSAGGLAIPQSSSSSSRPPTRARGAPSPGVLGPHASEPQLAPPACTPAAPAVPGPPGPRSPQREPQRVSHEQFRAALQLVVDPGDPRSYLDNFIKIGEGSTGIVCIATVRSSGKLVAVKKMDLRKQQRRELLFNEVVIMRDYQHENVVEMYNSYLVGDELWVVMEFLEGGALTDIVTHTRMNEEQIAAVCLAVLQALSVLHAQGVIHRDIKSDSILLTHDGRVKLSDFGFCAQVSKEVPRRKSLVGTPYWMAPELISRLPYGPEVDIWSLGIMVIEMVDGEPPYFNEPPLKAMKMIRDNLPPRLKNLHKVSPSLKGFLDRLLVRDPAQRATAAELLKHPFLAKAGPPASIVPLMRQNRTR
Sequence of MAPK14 (human) (Q16539 whole entry, looked up): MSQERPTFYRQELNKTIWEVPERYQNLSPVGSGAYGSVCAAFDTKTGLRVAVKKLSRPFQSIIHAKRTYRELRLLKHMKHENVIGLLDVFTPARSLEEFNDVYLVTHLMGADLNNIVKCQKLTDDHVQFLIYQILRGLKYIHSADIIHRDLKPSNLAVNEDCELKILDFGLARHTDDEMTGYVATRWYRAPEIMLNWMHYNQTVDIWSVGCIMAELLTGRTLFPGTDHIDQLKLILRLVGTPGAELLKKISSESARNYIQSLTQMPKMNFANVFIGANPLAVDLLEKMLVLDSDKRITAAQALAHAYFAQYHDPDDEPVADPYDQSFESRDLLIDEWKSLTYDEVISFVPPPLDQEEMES
Sequence of MELK (human) (Q14680 whole entry, looked up): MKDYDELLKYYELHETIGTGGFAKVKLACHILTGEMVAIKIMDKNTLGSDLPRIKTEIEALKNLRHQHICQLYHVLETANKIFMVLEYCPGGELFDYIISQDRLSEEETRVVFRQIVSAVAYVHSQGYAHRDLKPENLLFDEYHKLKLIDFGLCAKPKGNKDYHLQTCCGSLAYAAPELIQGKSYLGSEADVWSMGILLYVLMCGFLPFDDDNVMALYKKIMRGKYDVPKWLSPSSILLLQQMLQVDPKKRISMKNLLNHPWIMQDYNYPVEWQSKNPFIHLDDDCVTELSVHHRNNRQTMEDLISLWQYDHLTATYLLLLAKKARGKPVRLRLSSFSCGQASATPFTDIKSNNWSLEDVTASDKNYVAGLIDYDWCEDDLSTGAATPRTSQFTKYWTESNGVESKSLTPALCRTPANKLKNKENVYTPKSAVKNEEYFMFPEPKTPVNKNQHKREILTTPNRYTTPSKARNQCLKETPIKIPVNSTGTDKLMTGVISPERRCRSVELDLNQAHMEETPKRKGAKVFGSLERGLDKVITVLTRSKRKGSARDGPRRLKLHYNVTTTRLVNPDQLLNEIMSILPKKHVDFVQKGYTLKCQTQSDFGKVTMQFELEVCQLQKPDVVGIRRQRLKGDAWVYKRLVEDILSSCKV
Sequence of AURKB (human) (Q96GD4 whole entry, looked up): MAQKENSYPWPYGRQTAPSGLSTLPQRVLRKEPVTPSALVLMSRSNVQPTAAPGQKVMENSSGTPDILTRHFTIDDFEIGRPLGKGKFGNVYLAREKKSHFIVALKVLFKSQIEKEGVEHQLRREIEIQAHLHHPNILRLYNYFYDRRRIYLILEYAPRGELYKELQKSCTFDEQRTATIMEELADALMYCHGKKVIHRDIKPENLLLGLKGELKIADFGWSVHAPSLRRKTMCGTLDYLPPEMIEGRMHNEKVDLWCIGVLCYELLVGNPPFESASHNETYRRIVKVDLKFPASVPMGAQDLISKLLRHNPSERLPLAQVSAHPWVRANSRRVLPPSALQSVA
Sequence of CAMKK2 (human) (Q96RR4 whole entry, looked up): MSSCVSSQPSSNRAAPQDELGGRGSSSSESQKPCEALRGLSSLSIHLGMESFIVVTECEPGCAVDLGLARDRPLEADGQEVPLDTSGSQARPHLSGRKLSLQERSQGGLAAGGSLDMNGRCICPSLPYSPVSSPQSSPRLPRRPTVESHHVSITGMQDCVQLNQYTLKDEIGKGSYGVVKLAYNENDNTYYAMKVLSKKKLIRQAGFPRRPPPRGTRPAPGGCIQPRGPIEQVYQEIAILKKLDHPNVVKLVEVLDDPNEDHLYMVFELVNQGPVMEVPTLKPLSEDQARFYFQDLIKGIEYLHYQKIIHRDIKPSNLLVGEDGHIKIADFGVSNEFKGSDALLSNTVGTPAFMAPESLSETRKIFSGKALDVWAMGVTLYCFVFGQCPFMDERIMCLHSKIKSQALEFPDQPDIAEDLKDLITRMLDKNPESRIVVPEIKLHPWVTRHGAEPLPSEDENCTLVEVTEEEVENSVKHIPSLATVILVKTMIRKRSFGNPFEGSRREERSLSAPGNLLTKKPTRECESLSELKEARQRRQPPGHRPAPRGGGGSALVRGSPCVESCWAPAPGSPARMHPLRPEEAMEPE
Sequence of BTK (human) (Q06187 whole entry, looked up): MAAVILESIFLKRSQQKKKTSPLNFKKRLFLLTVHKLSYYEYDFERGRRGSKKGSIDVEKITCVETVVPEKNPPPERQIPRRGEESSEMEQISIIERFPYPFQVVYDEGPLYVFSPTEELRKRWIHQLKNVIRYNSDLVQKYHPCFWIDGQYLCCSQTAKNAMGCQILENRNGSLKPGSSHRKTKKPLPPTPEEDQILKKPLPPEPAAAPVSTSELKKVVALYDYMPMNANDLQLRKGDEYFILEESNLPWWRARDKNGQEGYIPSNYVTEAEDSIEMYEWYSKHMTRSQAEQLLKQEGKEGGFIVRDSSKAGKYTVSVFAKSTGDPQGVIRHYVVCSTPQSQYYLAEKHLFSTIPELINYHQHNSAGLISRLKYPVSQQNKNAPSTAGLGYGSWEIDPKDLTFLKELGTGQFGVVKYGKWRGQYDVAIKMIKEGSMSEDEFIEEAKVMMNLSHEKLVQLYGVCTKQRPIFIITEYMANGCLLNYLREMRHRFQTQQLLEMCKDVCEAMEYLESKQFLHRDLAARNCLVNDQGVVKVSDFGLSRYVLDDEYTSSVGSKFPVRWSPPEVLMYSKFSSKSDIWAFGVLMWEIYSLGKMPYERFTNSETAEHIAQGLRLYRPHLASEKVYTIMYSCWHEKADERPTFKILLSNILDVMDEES
Sequence of PIM1 (human) (P11309 whole entry, looked up): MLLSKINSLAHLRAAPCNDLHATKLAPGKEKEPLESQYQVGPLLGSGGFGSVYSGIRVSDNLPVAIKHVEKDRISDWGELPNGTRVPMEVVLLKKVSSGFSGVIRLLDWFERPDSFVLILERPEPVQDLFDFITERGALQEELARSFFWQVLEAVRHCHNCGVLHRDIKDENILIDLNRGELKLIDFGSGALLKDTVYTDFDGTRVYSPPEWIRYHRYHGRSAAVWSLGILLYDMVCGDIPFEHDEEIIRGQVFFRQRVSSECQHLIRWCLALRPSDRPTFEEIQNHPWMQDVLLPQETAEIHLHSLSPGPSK

Molecule `FC(F)(F)c1ccc(-c2ccc(Oc3cncc4sc(-c5nn[nH]n5)cc34)cc2)cc1` has a residual activity ([1]; compound 1.0 µM) of 81%, a residual activity ([1]; compound 10.0 µM) of 40% and a residual activity ([2]; compound 1.0 µM) of 87%. It also gave a residual activity ([2]; compound 10.0 µM) of 70%, a residual activity ([3]; compound 1.0 µM) of 109% and a residual activity ([3]; compound 10.0 µM) of 60%. It also gave a residual activity ([4]; compound 1.0 µM) of 100%, a residual activity ([4]; compound 10.0 µM) of 87% and a residual activity ([5]; compound 1.0 µM) of 93%. The residual activity ([5]; compound 10.0 µM) was 73%, the residual activity ([6]; compound 1.0 µM) was 105% and the residual activity ([6]; compound 10.0 µM) was 64%. It also gave a residual activity ([7]; compound 1.0 µM) of 104%, a residual activity ([7]; compound 10.0 µM) of 67% and a residual activity ([8]; compound 1.0 µM) of 91%. For the same molecule, the residual activity ([8]; compound 10.0 µM) was 73%, the residual activity ([9]; compound 1.0 µM) was 96% and the residual activity ([9]; compound 10.0 µM) was 87%. It also gave a residual activity ([10]; compound 1.0 µM) of 100%, a residual activity ([10]; compound 10.0 µM) of 95% and a residual activity ([11]; compound 1.0 µM) of 74%. For the same molecule, the residual activity ([11]; compound 10.0 µM) was 74%, the residual activity ([12]; compound 1.0 µM) was 113% and the residual activity ([12]; compound 10.0 µM) was 100%. It also gave a residual activity ([13]; compound 1.0 µM) of 98%, a residual activity ([13]; compound 10.0 µM) of 84% and a residual activity ([14]; compound 1.0 µM) of 97%. The residual activity ([14]; compound 10.0 µM) was 94%, the residual activity ([15]; compound 1.0 µM) was 121% and the residual activity ([15]; compound 10.0 µM) was 97%. For the same molecule, the residual activity ([16]; compound 1.0 µM) was 102%, the residual activity ([16]; compound 10.0 µM) was 107% and the residual activity ([17]; compound 1.0 µM) was 110%. The residual activity ([17]; compound 10.0 µM) was 67%, the residual activity ([18]; compound 1.0 µM) was 105% and the residual activity ([18]; compound 10.0 µM) was 44%. For the same molecule, the residual activity ([19]; compound 1.0 µM) was 122%, the residual activity ([19]; compound 10.0 µM) was 104% and the residual activity ([20]; compound 1.0 µM) was 27%. It also gave a residual activity ([20]; compound 10.0 µM) of 5%, a residual activity ([21]; compound 1.0 µM) of 89% and a residual activity ([21]; compound 10.0 µM) of 56%. It also gave a residual activity ([22]; compound 1.0 µM) of 81%, a residual activity ([22]; compound 10.0 µM) of 19% and a residual activity ([23]; compound 1.0 µM) of 34%. The residual activity ([23]; compound 10.0 µM) was 4%, the residual activity ([24]; compound 1.0 µM) was 86% and the residual activity ([24]; compound 10.0 µM) was 41%. The residual activity ([25]; compound 1.0 µM) was 83%, the residual activity ([25]; compound 10.0 µM) was 30% and the residual activity ([26]; compound 1.0 µM) was 103%. For the same molecule, the residual activity ([26]; compound 10.0 µM) was 94%, the residual activity ([27]; compound 1.0 µM) was 101% and the residual activity ([27]; compound 10.0 µM) was 89%. For the same molecule, the residual activity ([28]; compound 1.0 µM) was 22%, the residual activity ([28]; compound 10.0 µM) was 11% and the residual activity ([29]; compound 1.0 µM) was 109%. It also gave a residual activity ([29]; compound 10.0 µM) of 106%, a residual activity ([30]; compound 1.0 µM) of 138% and a residual activity ([30]; compound 10.0 µM) of 104%. For the same molecule, the residual activity ([31]; compound 1.0 µM) was 70%, the residual activity ([31]; compound 10.0 µM) was 17% and the residual activity ([32]; compound 1.0 µM) was 16%. It also gave a residual activity ([32]; compound 10.0 µM) of 3%, a residual activity ([33]; compound 1.0 µM) of 103% and a residual activity ([33]; compound 10.0 µM) of 101%. It also gave a residual activity ([34]; compound 1.0 µM) of 91%, a residual activity ([34]; compound 10.0 µM) of 61% and a residual activity ([35]; compound 1.0 µM) of 111%. It also gave a residual activity ([35]; compound 10.0 µM) of 120%.
